Measured values from patent publication US4238491A (priority 1977, dated 1980).
Read-outs that look alike come from different tables or passages of the source.

Experiments:
[1] = system: blood pressure of anesthesized dogs; assay: Effect on blood pressure of anesthesized dogs; assay type: in vivo, dog (mongrel); conditions: for average rate of blood pressure decrease: within 6 hours
Procedure: Changes in blood pressure were measured for 6 hours after the administration with a multi-purpose polygraph RM-85 made by NIHON KODEN.
The observed effect was a blood pressure decrease immediately after administration which came up nearly to plateau 2 hours after for 1 mg/kg, and 3 hours after for 3 mg/kg and 9 mg/kg, and in all cases remained on the plateau for 6 hours after that. The DB20 value obtained from the dose-response curve of FIG. 6 was 2 mg/kg.

[2] = system: central nervous system; conditions: in vivo; cited from earlier work
[3] = system: blood pressure of SHR; assay: Antihypertensive effect by single administration, SHR, direct cannulation; assay type: in vivo, rat (spontaneously hypertensive rats; conditions: for average rate of decrease in blood pressure: over 6 hours; for blood pressure decrease: 6 hours after; for ED (20% blood pressure decrease): Rattus norvegicus, read-out: DB20 (20% blood pressure descending dose)
Procedure: The effect was examined through both direct and modified tail-cuff methods using male SHRs aged 25 to 30 weeks and weighing about 300 g.
In the direct cannulation method, polyethylene cannules were inserted in femoral arteries of the conscious unanesthesized SHRs under back-fixation,and MR solution was administered in an amount of 0.1 mg/100 g of weight for venous injection, and 1 ml/100 g of weight for oral administration. Changes in the blood pressure over 6 hours were measured with a multi-purpose polygraph RM-85 made by NIHON KODEN Co., Ltd. MR was dissolved in 0.9% NaCl aqueous solution with 1 N-HCl, and the solution was neutralized for use.

[4] = system: rats
Source text: Rats were sacrificed under anesthesia with ether. After observation of gross appearance of all the organs, extraction and weighing were made on spleen, lung, liver, adrenal, heart, thymus, kidney, testicles, hypophysis and thyroid. In addition to the above organs, femoral bone marrow, lymph node, stomach, intestine, pancreas, urinary bladder, prostate and central nervous system were removed and fixed in 10% formaline solution.

[5] = Change of MR content in blood (serum level); assay type: in vivo, dogs, rabbits and rats
Procedure: In case of oral administration, the animals were not permitted to eat for 24 hours, except for the experiment of biotransformation.

[6] = in vivo; assay type: in vivo, rat (SD (SPF)); conditions: rat, in vivo; oral sub-acute, rats; read-out: ineffective dose
Procedure: (§1) All the rats were observed daily and general symptoms noted. Weight was measured daily, average food-intake once every three days, and average water-intake once every two days.

[7] = system: rats; assay: in vivo; assay type: in vivo, rat (SD (SPF))
Procedure: as §1

SMILES: COC(=O)[C@H]1[C@H]2C[C@@H]3c4[nH]c5cc(OC)ccc5c4CCN3C[C@H]2C[C@@H](O)[C@@H]1OC [MR, methylreserpate]
- time to plateau ([1]; 1 mg/kg intravenous): 2 h
- time to plateau ([1]; 3 mg/kg intravenous): 3 h
- average rate of blood pressure decrease ([1]; 3 mg/kg intravenous): 22.3%
- time to plateau ([1]; 9 mg/kg intravenous): 3 h
- average rate of blood pressure decrease ([1]; 9 mg/kg intravenous): 35.1%
- duration of plateau ([1]; 1, 3 and 9 mg/kg intravenous): 6 h
- ED (DB20) ([1]; Canis lupus familiaris, 6 h, intravenous, from dose-response curve of FIG. 6): 2 mg/kg
- inhibitory action of central nervous system [2]: less than that of RSP
- average rate of decrease in blood pressure ([3]; 2 mg/kg venous injection): 13%
- onset of blood pressure decrease ([3]; 4 mg/kg oral): 2 h
- blood pressure decrease ([3]; 4 mg/kg oral): 18%
- average rate of decrease in blood pressure ([3]; 4 mg/kg venous injection): 22.5%
- blood pressure decrease ([3]; 8 mg/kg oral): 26%
- average rate of decrease in blood pressure ([3]; 8 mg/kg venous injection): 28%
- blood pressure decrease ([3]; 16 mg/kg oral): 37%
- ED (20% blood pressure decrease) ([3]; iv, I.V.): 3.5 mg/kg
- ED (20% blood pressure decrease) ([3]; po, P.O.): 11.9 mg/kg
- antihypertensive effect compared with RCN ([3]; oral): almost the same
- antihypertensive effect ([3]; oral, summary for SHR and dogs): prolonged antihypertensive effect
- antihypertensive effect compared with RCN ([3]; venous injection): less intense
- Absolute weight Brain ([4]; 25.0 mg/kg): 2.26 ± 0.04 g
- Absolute weight Hypophysis ([4]; 25.0 mg/kg): 11.98 ± 0.44 mg
- Absolute weight Kidney ([4]; 25.0 mg/kg): 1.20 ± 0.04 g
- Absolute weight Liver ([4]; 25.0 mg/kg): 10.00 ± 0.47 g
- Absolute weight Lung ([4]; 25.0 mg/kg): 2.35 ± 0.05 g
- Absolute weight Spleen ([4]; 25.0 mg/kg): 0.71 ± 0.03 g
- Absolute weight Thymus ([4]; 25.0 mg/kg): 0.54 ± 0.02 g
- Absolute weight Thyroid ([4]; 25.0 mg/kg): 10.07 ± 0.55 mg
- Absolute weight Salivary ([4]; 25.0 mg/kg, P<0.01): 0.26 ± 0.01 g
- Absolute weight Brain ([4]; 50.0 mg/kg): 2.26 ± 0.03 g
- Absolute weight Hypophysis ([4]; 50.0 mg/kg): 11.93 ± 0.48 mg
- Absolute weight Kidney ([4]; 50.0 mg/kg): 1.19 ± 0.03 g
- Absolute weight Liver ([4]; 50.0 mg/kg): 10.16 ± 0.33 g
- Absolute weight Lung ([4]; 50.0 mg/kg): 2.26 ± 0.10 g
- Absolute weight Spleen ([4]; 50.0 mg/kg): 0.73 ± 0.03 g
- Absolute weight Thymus ([4]; 50.0 mg/kg): 0.58 ± 0.05 g
- Absolute weight Thyroid ([4]; 50.0 mg/kg): 8.55 ± 0.50 mg
- Absolute weight Salivary ([4]; 50.0 mg/kg, P<0.05): 0.26 ± 0.01 g
- absolute weight of other organs ([4]; 100 mg/kg): decrease in weight of the other organs
- Absolute weight Hypophysis ([4]; 100.0 mg/kg): 10.46 ± 0.17 mg
- Absolute weight Spleen ([4]; 100.0 mg/kg): 0.56 ± 0.03 g
- Absolute weight Thyroid ([4]; 100.0 mg/kg): 7.86 ± 0.38 mg
- Absolute weight Kidney ([4]; 100.0 mg/kg, P<0.01): 0.89 ± 0.03 g
- Absolute weight Salivary ([4]; 100.0 mg/kg, P<0.01): 0.21 ± 0.01 g
- Absolute weight Thymus ([4]; 100.0 mg/kg, P<0.01): 0.39 ± 0.03 g
- Absolute weight Brain ([4]; 100.0 mg/kg, P<0.05): 2.17 ± 0.04 g
- Absolute weight Liver ([4]; 100.0 mg/kg, P<0.05): 7.55 ± 0.32 g
- Absolute weight Lung ([4]; 100.0 mg/kg, P<0.05): 2.10 ± 0.06 g
- absolute adrenal weight ([4]; 25 and 50 mg/kg groups): weight increase of adrenal
- Absolute weight Brain ([4]; rat, in vivo): 2.28±0.03
- Absolute weight Hypophysis ([4]; rat, in vivo): 10.60±0.41
- Absolute weight Kidney ([4]; rat, in vivo): 1.17±0.05
- Absolute weight Liver ([4]; rat, in vivo): 10.18±0.50
- Absolute weight Lung ([4]; rat, in vivo): 1.32±0.12
- Absolute weight Salivary ([4]; rat, in vivo): 0.27±0.01
- Absolute weight Spleen ([4]; rat, in vivo): 0.69±0.03
- Absolute weight Thymus ([4]; rat, in vivo): 0.63±0.04
- Absolute weight Thyroid ([4]; rat, in vivo): 8.59±0.50
- gross appearance of organs ([4]; rat, in vivo): no noteworthy change
- absorption in the digestive tract ([5]; in vivo): readily absorbed
- correlation of serum level pattern with pattern of blood pressure decrease ([5]; in vivo): high corralation
- absorption from digestive tracts compared with RSP and RCN ([5]; oral): more readily absorbed
- Tmax ([5]; serum, po, 10 mg/kg, after administration, read-out: time of maximum serum level): 1 to 2 h
- NOAEL [6]: 12.5 mg/kg
- side effects ([7]; only at the higher doses): blepharoptosis, leukopenia, increase of urine volume, atrophy of hematopoietic organs, cortial hypertrophy of adrenal and degeneration of liver cells (in dead rats)
- food-intake ([7]; rat, in vivo): No difference
- general symptoms ([7]; rat, in vivo): blepharoptosis, roughening of fur and dirtiness of public region
- general symptoms, additional ([7]; rat, in vivo): reduction of body weight, bloody cojunctival discharge, and a decrease of limb-skin temperature
